For assay [1], the target named is recombinant human FLAP protein (Homo sapiens (Human), UniProt P20292). Put plainly: FLAP binding assay (Scintillation Proximity Assay, displacement of iodinated FLAP inhibitor). As to conditions: displacement of [125I]L-691,831; membranes of sf9 cells expressing recombinant human FLAP; read-out: hFLAP binding IC50. The procedure:
Compounds are assessed for the ability to bind to FLAP in a binding assay that measures compound-specific displacement of an iodinated (^125I) FLAP inhibitor via a Scintillation Proximity Assay format (adapted from S. Charleson et al., Mol. Pharmacol., 1992, 41, 873-879).
Cell pellets produced from sf9 insect cells expressing recombinant human FLAP protein are resuspended in buffer A [15 mM Tris-HCl (pH 7.5), 2 mM MgCl2, 0.3 mM EDTA, 1 mM PMSF]. The cells are lysed with a Dounce homogenizer and the material is centrifuged at 10,000×g for 10 minutes. The supernatant is then collected and centrifuged at 100,000×g for 60 minutes. To prepare membrane protein for an assay, an aliquot of the 100,000×g pellet is resuspended in 1 ml of buffer A, Dounce homogenized, and finally subjected to polytron mixing (30 seconds). Membrane protein (25 μl, 5 μg) is mixed with WGA SPA beads (Amersham) and stirred for 1 h. […] (final concentrations: beads, 200 μg/well; protein, 5 μg/well; [^125I] probe, 0 08 nM/well (17 nCi/well). The plates are shaken for 2 h before reading on a Microbeta plate reader. Non-specific binding is determined by the addition of 10 μM cold L-691,831 compound.
(In general: SPA uses beads or plates that emit light when radiolabelled molecules are held near them.)

In assay [2] the test system is synthesis of LTB4 in human whole blood. Put plainly: human whole blood LTB4 production inhibition assay. Format: cell-based. As to conditions: heparinized human whole blood, calcimycin 20 μM stimulation, plasma LTB4; read-out: hWB IC50. The procedure: Compounds are additionally tested in a human whole blood assay to determine their ability to inhibit the synthesis of LTB4 in a cellular system. Compounds are combined with heparinized human whole blood and incubated for 15 minutes at 37° C. Calcimycin (20 μM final, prepared in phosphate-buffered saline, pH 7.4) is then added and the mixture is incubated for another 30 minutes at 37° C. The samples are centrifuged for 5 min at low speed (1500×g) and the plasma layer is removed. Plasma LTB4 concentrations are then measured using an antibody-based homogenous time-resolved fluorescence method (CisBio, Bedford, Mass.).

Chain of recombinant human FLAP protein (P20292 whole entry): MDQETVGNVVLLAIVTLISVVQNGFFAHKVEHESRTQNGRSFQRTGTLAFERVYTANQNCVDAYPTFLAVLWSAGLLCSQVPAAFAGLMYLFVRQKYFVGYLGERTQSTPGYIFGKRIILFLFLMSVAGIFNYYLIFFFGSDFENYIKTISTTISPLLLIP

Broadly, the IC50 is the point on the concentration scale where inhibition reaches its midpoint. As to `Cc1ncn(-c2ccc(C#N)nc2-c2nc3cc(-c4cnc(N)nc4)ccc3n2C(C)(C)C)n1` [Example 2, 6-[5-(2-Amino-pyrimidin-5-yl)-1-tert-butyl-1H-benzimidazol-2-yl]-5-(3-methyl-1,2,4-triazol-1-yl)-pyridine-2-carbonitrile], the IC50 came to 4.2 nM in assay [1] and 36 nM in assay [2].

Take `CC(C)(C)n1c(-c2cccc(F)n2)nc2cc(-c3cnc(NCc4cccc(F)n4)nc3)ccc21` [Example 15, {5-[1-tert-Butyl-2-(6-fluoro-pyridin-2-yl)-1H-benzimidazol-5-yl]-pyrimidin-2-yl}-(6-fluoro-pyridin-2-ylmethyl)-amine]: in assay [1], the IC50 is 870 nM.

For `CC(C)(C)Oc1cccc(-c2nc3cc(-c4cnc(N)nc4)ccc3n2C(C)(C)C)n1` [Example 13, 5-[2-(6-tert-Butoxy-pyridin-2-yl)-1-tert-butyl-1H-benzimidazol-5-yl]-pyrimidin-2-ylamine], in assay [1], the IC50 was found to be 51 nM.

As for `COc1cccc(-c2nc3cc(-c4cnc(N)nc4)ccc3n2C(C)(C)C)n1` [Example 11, 5-[1-tert-Butyl-2-(6-methoxy-pyridin-2-yl)-1H-benzimidazol-5-yl]-pyrimidin-2-ylamine], in assay [1], the IC50 was 46 nM.

On to `COc1ncccc1-c1nc2cc(-c3cnc(N)nc3)ccc2n1C(C)(C)C` [Example 32, 5-[1-tert-Butyl-2-(2-methoxy-pyridin-3-yl)-1H-benzimidazol-5-yl]-pyrimidin-2-ylamine], for which the IC50 in assay [1] is 220 nM.

As to `CC(C)(C)n1c(-c2cc(Cl)cnc2-n2cncn2)nc2cc(-c3cnc(N)nc3)ccc21` [Example 22, 5-[1-tert-Butyl-2-(5-chloro-2-1,2,4-triazol-1-yl-pyridin-3-yl)-1H-benzimidazol-5-yl]-pyrimidin-2-ylamine], the IC50 in assay [1] is 3.2 nM; in assay [2] it was 116 nM.

For the compound `CNC(=O)c1cccnc1-c1nc2cc(-c3cnc(N)nc3)ccc2n1C(C)(C)C` [Example 8, 2-[5-(2-Amino-pyrimidin-5-yl)-1-tert-butyl-1H-benzimidazol-2-yl]-N-methyl-nicotinamide], the values for the IC50 in assay [1] and in assay [2] were 620 nM and 1700 nM, respectively.

`Cc1ncn(-c2ccc(C#N)nc2-c2nc3cc(-c4cnc(N)nc4)ccc3n2C2(C)CCC2)n1` [Example 5, 6-[5-(2-Amino-pyrimidin-5-yl)-1-(1-methyl-cyclobutyl)-1H-benzimidazol-2-yl]-5-(3-methyl-1,2,4-triazol-1-yl)-pyridine-2-carbonitrile]: the IC50 was found to be 29 nM in assay [1] and 256 nM in assay [2].

In the case of `Cc1ncnn1-c1ccc(C#N)nc1-c1nc2cc(-c3cnc(N)nc3)ccc2n1C(C)(C)C` [Example 3, 6-[5-(2-Amino-pyrimidin-5-yl)-1-tert-butyl-1H-benzimidazol-2-yl]-5-(5-methyl-1,2,4-triazol-1-yl)-pyridine-2-carbonitrile], the IC50 in assay [1] came to 5.9 nM; in assay [2], 89 nM.

As to `Cc1ncn(-c2ncccc2-c2nc3cc(-c4cnc(N)nc4)ccc3n2C(C)(C)C)n1` [Example 25, 5-{1-tert-Butyl-2-[2-(3-methyl-1,2,4-triazol-1-yl)-pyridin-3-yl]-1H-benzimidazol-5-yl}-pyrimidin-2-ylamine], the IC50 turned out to be 12 nM in assay [1] and 278 nM in assay [2].

In the case of `CC(C)(C)n1c(-c2ccccn2)nc2cc(-c3cnc(N)nc3)ccc21` [Example 12, 5-(1-tert-Butyl-2-pyridin-2-yl-1H-benzimidazol-5-yl)-pyrimidin-2-ylamine], the IC50 in assay [1] turned out to be 700 nM.

In the case of `COc1cccnc1-c1nc2cc(-c3cnc(N)nc3)ccc2n1C(C)(C)C` [Example 16, 5-[1-tert-Butyl-2-(3-methoxy-pyridin-2-yl)-1H-benzimidazol-5-yl]-pyrimidin-2-ylamine], the IC50 in assay [1] was found to be 960 nM.

Consider `Cc1ncnn1-c1ncccc1-c1nc2cc(-c3cnc(N)nc3)ccc2n1C(C)(C)C` [Example 24, 5-{1-tert-Butyl-2-[2-(5-methyl-1,2,4-triazol-1-yl)-pyridin-3-yl]-1H-benzimidazol-5-yl}-pyrimidin-2-ylamine], for which the IC50 in assay [1] came to 23 nM; in assay [2] it was 242 nM.

Take `CC(C)(C)n1c(-c2ccc(N3CCOCC3)nc2)nc2cc(-c3cnc(N)nc3)ccc21` [Example 30, 5-[1-tert-Butyl-2-(6-morpholin-4-yl-pyridin-3-yl)-1H-benzimidazol-5-yl]-pyrimidin-2-ylamine]: the IC50 in assay [1] was 180 nM.

As to `Cc1ncnn1-c1ccc(C#N)nc1-c1nc2cc(-c3cnc(N)nc3)ccc2n1C1(C)CCC1` [Example 6, 6-[5-(2-Amino-pyrimidin-5-yl)-1-(1-methyl-cyclobutyl)-1H-benzimidazol-2-yl]-5-(5-methyl-1,2,4-triazol-1-yl)-pyridine-2-carbonitrile], the IC50 in assay [1] was 86 nM; in assay [2], 894 nM.

`CCC(C)(C)n1c(-c2cc(Br)cnc2-n2cncn2)nc2cc(-c3cnc(N)nc3)ccc21` [Example 27, 5-[2-(5-Bromo-2-1,2,4-triazol-1-yl-pyridin-3-yl)-1-(1,1-dimethyl-propyl)-1H-benzimidazol-5-yl]-pyrimidin-2-ylamine]: the figures for the IC50 in assay [1] and in assay [2] were 23 nM and 667 nM, respectively.

Turning to `Cc1ccc(-c2nc3cc(-c4cnc(N)nc4)ccc3n2C(C)(C)C)c(-n2cncn2)n1` [Example 28, 5-[1-tert-Butyl-2-(6-methyl-2-1,2,4-triazol-1-yl-pyridin-3-yl)-1H-benzimidazol-5-yl]-pyrimidin-2-ylamine], the values for the IC50 in assay [1] and in assay [2] were 17 nM and 194 nM, respectively.

`CC(C)(C)n1c(-c2nc(C3CC3)ccc2-n2cncn2)nc2cc(-c3cnc(N)nc3)ccc21` [Example 4, 5-[1-tert-Butyl-2-(6-cyclopropyl-3-1,2,4-triazol-1-yl-pyridin-2-yl)-1H-benzimidazol-5-yl]-pyrimidin-2-ylamine]: the IC50 was 13 nM in assay [1] and 140 nM in assay [2].

With `CC(C)(C)n1c(-c2cccnc2)nc2cc(-c3cnc(N)nc3)ccc21` [Example 31, 5-(1-tert-Butyl-2-pyridin-3-yl-1H-benzimidazol-5-yl)-pyrimidin-2-ylamine], in assay [1], the half-inhibitory concentration (IC50) was determined as 542 nM.

`CC(C)(C)n1c(-c2nc(C#N)ccc2-n2cncn2)nc2cc(-c3cnc(N)nc3)ccc21` [Example 1, 6-[5-(2-Amino-pyrimidin-5-yl)-1-tert-butyl-1H-benzimidazol-2-yl]-5-1,2,4-triazol-1-yl-pyridine-2-carbonitrile]: the half-inhibitory concentration (IC50) was determined as 7.1 nM in assay [1] and 30 nM in assay [2].

Regarding `COc1cc(-c2nc3cc(-c4cnc(N)nc4)ccc3n2C(C)(C)C)c(F)cn1` [Example 17, 5-[1-tert-Butyl-2-(5-fluoro-2-methoxy-pyridin-4-yl)-1H-benzimidazol-5-yl]-pyrimidin-2-ylamine], the IC50 in assay [1] and in assay [2] was 58 nM in each case.

On to `COC(=O)c1cccnc1-c1nc2cc(-c3cnc(N)nc3)ccc2n1C(C)(C)C` [Example 7, 2-[5-(2-Amino-pyrimidin-5-yl)-1-tert-butyl-1H-benzimidazol-2-yl]-nicotinic acid methyl esler], for which the IC50 in assay [1] was 540 nM; in assay [2] it was 3100 nM.

`CNC(=O)c1ccc(C#N)nc1-c1nc2cc(-c3cnc(N)nc3)ccc2n1C(C)(C)C` [Example 10, 2-[5-(2-Amino-pyrimidin-5-yl)-1-tert-butyl-1H-benzimidazol-2-yl]-6-cyano-N-methyl-nicotinamide]: the IC50 in assay [1] amounted to 138 nM; in assay [2], 422 nM.

For the compound `COc1cncc(-c2nc3cc(-c4cnc(N)nc4)ccc3n2C(C)(C)C)c1` [Example 29, 5-[1-tert-Butyl-2-(5-methoxy-pyridin-3-yl)-1H-benzimidazol-5-yl]-pyrimidin-2-ylamine], the IC50 in assay [1] turned out to be 300 nM.

Consider `CC(C)(C)n1c(-c2cccnc2-n2cncn2)nc2cc(-c3cnc(N)nc3)ccc21` [Example 20, 5-[1-tert-Butyl-2-(2-1,2,4-triazol-1-yl-pyridin-3-yl)-1H-benzimidazol-5-yl]-pyrimidin-2-ylamine], for which the values for the IC50 in assay [1] and in assay [2] were 19 nM and 447 nM, respectively.

In the case of `CC(C)(C)n1c(-c2cc(C#N)cnc2-n2cncn2)nc2cc(-c3cnc(N)nc3)ccc21` [Example 26, 5-[5-(2-Amino-pyrimidin-5-yl)-1-tert-butyl-1H-benzimidazol-2-yl]-6-1,2,4-triazol-1-yl-nicotinonitrile], the figures for the IC50 in assay [1] and in assay [2] were 10 nM and 75 nM, respectively.

With `CC(C)(C)n1c(-c2cccc(F)n2)nc2cc(-c3cnc(N)nc3)ccc21` [Example 14, 5-[1-tert-Butyl-2-(6-fluoro-pyridin-2-yl)-1H-benzimidazol-5-yl]-pyrimidin-2-ylamine], the IC50 in assay [1] came out at 279 nM.

In the case of `CCOc1ncccc1-c1nc2cc(-c3cnc(N)nc3)ccc2n1C(C)(C)C` [Example 33, 5-[1-tert-Butyl-2-(2-ethoxy-pyridin-3-yl)-1H-benzimidazol-5-yl]-pyrimidin-2-ylamine], the IC50 in assay [1] was 34 nM.

For the origin of these results see patent US8772304B2, “Benzimidazole inhibitors of leukotriene production” (Boehringer Ingelheim International GmbH, priority 2010, dated 2014).
